From patent publication US8710063B2, “Purine compounds used as CB2 agonists” (priority 2010, dated 2014)
Counter-ions that a name gives are not always drawn.

Assays:
male Lewis rats = experiment: Monoiodoacetate (MIA) model, incapacitance testing; type: in vivo; conditions: dosed once, rat MIA model
Description: Monoiodoacetate (MIA) Model
For all studies male Lewis rats of approximately 8 weeks of age at the time of MIA injection are used to measure pain in the MIA model. The rats are housed in groups of 2 or 3 per cage and maintained in a constant temperature and on a 12 hour light/12 hour dark cycle. Animals have free access to food and water at all times except during data collection.
In the standard MIA model the right knees of each rat are injected with 0.3 mg MIA in 50 ul of saline and the left knees with 50 ul of saline. Pain is measured at varying times after MIA injection (not normally before 10 day post MIA injection) using incapacitance testing. This measures the difference in hind paw weight bearing between the MIA and saline injected knees, and each measurement is the average of 3 separate measurements each measured over 1 second.
For studies with CB2 agonists rats are randomized into dose groups (n=5 or 6) and then dosed once with the compound under investigation. Dosing is staggered by 15 minutes for each rat and at a predetermined time post-dose (usually 2 hours), pain measured using incapacitance testing. Studies are routinely run with 4 groups, vehicle (1% carboxy methyl cellulose in water plus 0.25% polysorbate 80) and 3 compound groups which can be either single compounds at a single dose or the same compound at 3 doses. Results are reported as the difference in weight bearing between saline and MIA injected knees and statistical comparisons are made between vehicle treated and compound treated animals to assess the effect of compounds on knee pain in the model.

[1] = tested on: Male Harlan Sprague-Dawley rats; experiment: Animal model of dural plasma protein extravasation (PPE); type: in vivo; conditions: 10 mg/kg, 2 hours post po dose, rat; saline controls approximately 2.0, full prevention approximately 1.0
hCB1-CHO membranes = target: T1, hCB1-CHO membranes (Homo sapiens, UniProt P21554); experiment: CB1 in vitro functional assay, SPA based GTP-γ-35S binding, agonist mode (whole membrane capture); type: biochemical; conditions: normalized to methanandamide, read-out: relative EC50 value for CB1
T1 construct: expressed in transfected cells; host or cells: CHO cells
T1 sequence (P21554 whole entry): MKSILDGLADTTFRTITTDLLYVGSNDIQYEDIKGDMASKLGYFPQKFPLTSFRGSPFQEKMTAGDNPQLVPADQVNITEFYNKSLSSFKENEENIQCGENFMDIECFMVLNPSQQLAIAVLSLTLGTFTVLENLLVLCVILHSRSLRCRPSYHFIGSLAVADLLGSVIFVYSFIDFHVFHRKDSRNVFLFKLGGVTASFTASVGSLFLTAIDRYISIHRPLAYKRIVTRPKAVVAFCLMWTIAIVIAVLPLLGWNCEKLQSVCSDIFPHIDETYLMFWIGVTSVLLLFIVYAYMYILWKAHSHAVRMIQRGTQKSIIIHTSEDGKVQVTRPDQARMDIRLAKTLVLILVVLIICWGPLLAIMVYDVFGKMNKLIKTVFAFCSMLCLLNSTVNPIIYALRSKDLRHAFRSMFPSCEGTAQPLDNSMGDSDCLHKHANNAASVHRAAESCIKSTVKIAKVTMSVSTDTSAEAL
Description: (§1) CB1 and CB2 In Vitro Functional Assays
(§2) Exemplified compounds are tested in agonist mode using a SPA based GTP-γ-^35S binding assay. All assay components are prepared in assay buffer made up of 20 mM HEPES, 100 mM NaCl, 5 mM MgCl2, (pH 7.4 at room temperature). Semi-log compound dilutions are done in assay buffer containing BSA (final 0.125%). GTP-γ^35-S binding is measured in a 96 well format using a whole membrane capture technique for the CB1 assay and modifications of an antibody capture technique previously described (DeLapp et al. J Pharmacol Exp Ther 289:946-955, 1999) for the CB2 assay. All incubations are done at room temperature.
hCB1-CHO membranes, GDP (1 uM final), and saponin (10 ug/mL final) are added to assay buffer and homogenized. Diluted compounds, GTP-γ-^35S (500 nM final) and membranes are added to the assay plate and incubated for 30 minutes. Then 1 mg/well Wheatgerm Agglutinin SPA bead is added, and the plates are sealed, vortexed, and incubated for an additional hour. Plates are then centrifuged at 700×g for 10 minutes and counted for 1 minute per well using a scintillation counter.
To analyze data, first subtract background from all wells. Determine percent agonist efficacy by normalizing agonist/inverse agonist dose response data to a full agonist (methanandamide) response. Analyze the data using a 4-parameter logistic reduced fit with Activity Base and XLFit3.

rat CB2 receptor = target: T2, rat CB2 receptor (Rattus norvegicus, UniProt Q9QZN9); experiment: Displacement of 3H-CP55940 from rat CB2 receptors; type: binding; conditions: displacement of 3H-CP55940, rat CB2 membrane homogenates
T2 construct: expressed in transfected cells
T2 sequence (Q9QZN9 1-360): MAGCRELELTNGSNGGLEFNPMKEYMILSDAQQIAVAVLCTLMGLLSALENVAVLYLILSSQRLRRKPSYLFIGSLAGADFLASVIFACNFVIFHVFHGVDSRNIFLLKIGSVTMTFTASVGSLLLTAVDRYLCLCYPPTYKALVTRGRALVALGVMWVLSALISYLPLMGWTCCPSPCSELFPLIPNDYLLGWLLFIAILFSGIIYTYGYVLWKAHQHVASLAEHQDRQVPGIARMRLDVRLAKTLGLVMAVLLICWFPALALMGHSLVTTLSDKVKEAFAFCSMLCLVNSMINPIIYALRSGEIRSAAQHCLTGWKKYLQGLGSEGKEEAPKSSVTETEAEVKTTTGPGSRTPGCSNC
Description: (§3) Displacement of 3H-CP55940 from Human and Rat CB2 Receptors
(§4) The methods of Felder et al. (Mol. Pharmaocol. 48:443-450, 1995) were utilized with minor modifications. Specifically, membrane homogenates from cells stably or transiently expressing the human or rat CB2 receptor were washed by centrifugation and diluted into a 50 mM Tris HCl (pH 7.4), 5 mM MgCl2, 2.5 mM EDTA, and 0.1% BSA buffer. Specific binding of 3H-CP55940 was defined with 1 μM CP55940. The ability of compounds to displace specific 3H-CP55940 binding was tested over a range of concentrations in the Tris, MgCl2, EDTA, BSA buffer in the presence of 1% dimethyl sulfoxide by incubating at room temperature for 90 minutes in a volume of 300 μl. Unifilter 96-well microplates pretreated with 0.5% polyvinylpyrrolidone, 0.1% polysorbate 20 in water were washed three times with cold Tris buffer. The reaction mixture was then transferred to the filter plate immediately before terminating the incubation by rapid filtration and three 200 μl washes with cold Tris buffer. After the filter plates dried, microscint 20 was added to each well, the plate sealed and counted for determination of disintegrations per minute. The displacement curves were graphed and the resulting Ki values determined utilizing Graphpad Prism.

hCB2-Sf9 membranes = target: T3, hCB2-Sf9 membranes (Homo sapiens, UniProt P34972); experiment: CB2 in vitro functional assay, SPA based GTP-γ-35S binding, agonist mode (antibody capture); type: biochemical; conditions: normalized to methanandamide, read-out: relative EC50 value for CB2
T3 construct: expressed in transfected cells; host or cells: Sf9 insect cells
T3 sequence (P34972 whole entry): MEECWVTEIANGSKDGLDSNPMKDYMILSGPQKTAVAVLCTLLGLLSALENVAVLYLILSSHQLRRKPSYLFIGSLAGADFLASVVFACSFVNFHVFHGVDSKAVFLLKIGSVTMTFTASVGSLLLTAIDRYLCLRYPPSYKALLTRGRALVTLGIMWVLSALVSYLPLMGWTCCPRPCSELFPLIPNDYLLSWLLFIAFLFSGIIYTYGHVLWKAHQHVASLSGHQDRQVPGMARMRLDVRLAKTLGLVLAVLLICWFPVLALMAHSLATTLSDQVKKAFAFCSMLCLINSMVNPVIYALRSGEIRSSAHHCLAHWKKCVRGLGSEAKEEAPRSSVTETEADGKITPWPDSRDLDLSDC
Description: as §1, §2
hCB2-Sf9 membranes and GDP (1 uM final) are added to assay buffer and homogenized. Diluted compounds and membranes are added to the assay plate and pre-incubated for 15 minutes. This is followed by addition of GTP-γ-^35S ([…] final) and another 35 minute incubation. Next a mixture containing Nonidet P40 detergent (0.2% final), anti-Gi antibody (final dilution of 1:362), and 1.25 mg anti-rabbit antibody scintillation proximity assay beads are added. The plates are then sealed, vortexed, and incubated for an additional 2 hours before centrifuging and counting as for CB1.
To analyze data, first subtract background from all wells. […]

human CB2 receptor = target: T4, human CB2 receptor (Homo sapiens, UniProt P34972); experiment: Displacement of 3H-CP55940 from human CB2 receptors; type: binding; conditions: displacement of 3H-CP55940, human CB2 membrane homogenates
T4 construct: expressed in transfected cells
T4 sequence (P34972 whole entry): as above
Description: as §3, §4

Cc1nc(N2CCN(C)CC2)c2nc(-c3ccccc3Cl)n(CCS(C)(=O)=O)c2n1.Cl [Example 1, 8-(2-Chlorophenyl)-6-(4-methylpiperazin-1-yl)-2-methyl-9-(2-methylsulfonylethyl)purine hydrochloride]
pain versus vehicle (difference in hind paw weight bearing) (male Lewis rats; dose 0.3 mg/kg): reduce pain versus vehicle | pain versus vehicle (difference in hind paw weight bearing) (male Lewis rats; dose 1 mg/kg): reduce pain versus vehicle | extravasation ratio (stimulated side over unstimulated side of dura) [1]: 1.12

CCN1CCN(c2nc(C)nc3c2nc(-c2ccccc2Cl)n3CCS(C)(=O)=O)CC1 [Example 2, 8-(2-Chlorophenyl)-6-(4-ethylpiperazin-1-yl)-2-methyl-9-(2-methylsulfonylethyl)purine hydrochloride]
EC50 (hCB1-CHO membranes): 5560 nM | Ki (rat CB2 receptor): 48.7 nM | EC50 (hCB2-Sf9 membranes): 17.2 nM | Ki (human CB2 receptor): 28.4 nM

Cc1nc(N2CCN(C)CC2)c2nc(-c3ccccc3Cl)n(CC#N)c2n1 [Example 3, 2-[8-(2-Chlorophenyl)-2-methyl-6-(4-methylpiperazin-1-yl)purin-9-yl]acetonitrile hydrochloride]
Ki (rat CB2 receptor): 12.6 nM | Ki (human CB2 receptor): 27.8 nM

CCN1CCN(c2nc(C)nc3c2nc(-c2ccccc2Cl)n3CCNC(C)=O)CC1.Cl [Example 7, N-[2-[8-(2-Chlorophenyl)-6-(4-ethylpiperazin-1-yl)-2-methyl-purin-9-yl]ethyl]acetamide hydrochloride]
extravasation ratio (stimulated side over unstimulated side of dura) [1]: 1.18

COC(=O)NCCn1c(-c2ccccc2Cl)nc2c(N3CCN(CCF)CC3)nc(C)nc21 [Example 16, Methyl N-[2-[8-(2-chlorophenyl)-6-[4-(2-fluoroethyl)piperazin-1-yl]-2-methyl-purin-9-yl]ethyl]carbamate hydrochloride]
EC50 (hCB1-CHO membranes): > 100000 nM | EC50 (hCB2-Sf9 membranes): 13.5 nM

CC(=O)NCCn1c(-c2ccccc2Cl)nc2c(N3CCN(CCF)CC3)nc(C)nc21.Cl [Example 17, N-[2-[8-(2-chlorophenyl)-6-[4-(2-fluoroethyl)piperazin-1-yl]-2-methyl-purin-9-yl]ethyl]acetamide hydrochloride]
pain versus vehicle (difference in hind paw weight bearing) (male Lewis rats; dose 0.1 mg/kg): reduce pain versus vehicle | pain versus vehicle (difference in hind paw weight bearing) (male Lewis rats; dose 0.3 mg/kg): reduce pain versus vehicle | pain versus vehicle (difference in hind paw weight bearing) (male Lewis rats; dose 1 mg/kg): reduce pain versus vehicle
